Assay results: patent US20190307818A1, “NOVEL ANTIMICROBIAL COMPOSITIONS AND METHODS OF USE” (priority 2016, published 2019)

Experiments:
CRISPR-Cas system = experiment: Transformation assay, efficiency of transformation (EOT); format: cell-based, P. aeruginosa PA14; details: ΔlasI ΔrhII mutant; both AIs added together
Description: Bacteria were grown to the appropriate OD600, washed twice at RT in 300 mM sucrose, and electroporated with 1 μg empty vector plasmid pHERD30T or pCR2SP1 containing a phage-derived sequence specifically targeted for degradation by CRISPR-Cas (Bondy-Denomy, Pawluk et al. 2013). 1 ml LB was added and the bacteria were grown 1 h at 37° C. with shaking, after which they were plated on selective medium, e.g., LB medium containing 50 μg/ml gentamicin, and incubated overnight at 37° C. Bacterial colonies were counted using Image Quant Las 4000 and Image Quant TL software (GE Healthcare). Colony forming units (CFU)/ml were quantified and the efficiency of transformation was calculated as the percentage of colonies transformed by pCR2SP1 compared to those transformed by the empty vector control pHERD30T.
This assay utilizes a plasmid as a proxy for a phage, to quantify the frequency with which a foreign genetic material is identified and targeted for degradation by the host bacterial immune system. For bacterial cells having a functional CRISPR-Cas system, the plasmid will be targeted for destruction, and no colonies will grow on the plate, as antibiotic resistance has been lost.
For cells lacking a CRISPR-Cas system or having an impaired or partially functioning CRISPR-Cas system, the electroporated plasmid evades destruction by the bacterial host and is able to replicate. […]

cas3 = cas3 expression by qRT-PCR; format: cell-based, Pseudomonas aeruginosa PA14; details: ΔlasI ΔrhII mutant; 100 μM 3-O—C12-HSL and 100 μM C4-HSL given together; normalized to 5S ribosomal RNA
Description: In one example protocol, P. aeruginosa PA14 and mutants were grown overnight at 37° C. with shaking in LB broth. Cultures were back diluted 1:100 and grown to the indicated OD600 in the presence or absence of DMSO, 3-O—C12-HSL, C4—HSL (Sigma) or Baicalein (Cayman Chemical) at the specified concentrations. LB was supplemented with 50 μg/ml Gentamicin where appropriate.
For Quantitative Real Time-PCR (qRT-PCR), bacteria were harvested at the indicated OD600. RNA was purified using Trizol (Ambion), DNAse treated using DNA-free (Ambion), cDNA was synthesized using SuperScript® III Reverse Transcriptase (Invitrogen) and quantified using PerfeCTa® SYBR® Green FastMix®, Low ROX (Quanta Biociences).
Quantitative Real Time-PCR (qRT-PCR) was utilized to determine the relative expression of cas3 in each of these mutant strains. Additionally, 100 μM 3-O—C12-HSL and 100 μM C4-HSL, which are AIs that rescue cas3 expression, were added to the cell culture comprising the mutant strain ΔlasI ΔrhII. It is understood that other concentrations of 3-O—C12-HSL and C4—HSL are also suitable, e.g., the concentrations may be in the range of 2 μM to 100 μM, from 10 μM to 100 μM or from 2 μM to 10 μM. In some embodiments, 2 μM of 3-O—C12-HSL and 10 μM of C4-HSL were used. The expression profiles for cas3 for each strain were then normalized based on expression of 5S ribosomal RNA. […]

[1] = test system: P. aeruginosa PA14 ΔlasI ΔrhII CRISPR adaptation; experiment: CRISPR adaptation (new spacer integration by PCR); format: cell-based; details: ΔlasI ΔrhII strain; AIs 2 μM 3-O—C12-HSL+10 μM C4-HSL given together; Baicalein 100 μM with AIs; vs DMSO
Description: FIG. 3. QS inhibitors block CRISPR adaptation and disable QS-mediated bacterial immunity. A P. aeruginosa PA14 ΔlasI ΔrhII QS deficient strain was transformed with foreign DNA (e.g., a CRISPR-targeted plasmid). A single colony from the transformation was re-streaked on selective media containing either DMSO (as a control), AIs (2 μM 3-O—C12-HSL+10 μM C4-HSL), or AIs and a QS inhibitor (2 μM 3-O—C12-HSL+10 μM C4-HSL+100 μM Baicalein). Single colonies were tested for integration of new inserted spacers (conferring immunity) against the CRISPR-targeted plasmid. In particular, PCR primers were designed to amplify specific genomic regions into which spacers were inserted. Primers complementary to the region upstream of the CRISPR region and to the second spacer region were designed, and PCR amplification was utilized to test for the presence of the newly inserted spacer (a process referred to as adaptation).
A P. aeruginosa PA14 ΔlasI ΔrhII QS deficient strain was transformed with foreign DNA (e.g., a CRISPR-targeted plasmid such as pCR2SP1, as described above). A single colony from the transformation was re-streaked on selective medium, e.g., LB medium containing 50 μg/ml gentamicin and either DMSO (as a control), AIs (2 μM 3-O—C12-HSL+10 μM C4-HSL), or both AIs and a QS inhibitor (2 μM 3-O—C12-HSL+[…] C4-HSL+100 μM Baicalein QS inhibitor) and incubated at 37° C. O/N. Single colonies were tested for integration of new immunity spacers against the CRISPR-targeted plasmid by PCR using iProof High-Fidelity DNA Polymerase (Bio-Rad) and primers CR2SP check F+R upstream of the CRISPR2 region and in the second spacer. Thus, PCR primers were designed to amplify the genomic region in which the new spacer was present. Primers targeting a sequence upstream of the CRISPR-Cas region and targeting the second spacer region were designed, and PCR amplification was utilized to test for the presence of the new inserted spacer (a portion of the plasmid sequence inserted between the CRISPR locus and spacers). […]

[2] = test system: Wild-type P. aeruginosa pyocyanin production; details: previously shown; cited from earlier work

Compound	immune activity (efficiency of transformation) (CRISPR-Cas system)	cas3 expression (cas3)	CRISPR adaptation (fraction of cells in the colony that adapted) [1]	pyocyanin production [2]
CCCC(=O)N[C@H]1CCOC1=O [Molecule C4-HSL, N-butyryl-L-homoserine lactone]	restored immune activity to nearly WT levels	restore cas3 expression to WT levels	increased the fraction of cells in the colony that adapted	–
meta-bromothiolactone [mBTL]	–	–	–	inhibit pyocyanin production
CCCCCCCCCC(=O)CC(=O)N[C@H]1CCOC1=O [3-O—C12-HSL]	restored immune activity to nearly WT levels	restore cas3 expression to WT levels	increased the fraction of cells in the colony that adapted	–
